Biological target: Human RSK2 (Homo sapiens (Human), UniProt P51812)
Assay: Human RSK2 assay (Kinase Glo Plus, residual ATP);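 note: recombinant human RSK2 phosphorylating a substrate peptide, 90 min at 28 °C, leftover ATP read by luminescence, RLU scaled between no-kinase background and uninhibited kinase controls, 4-parameter fit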
Format: biochemical

Chain of Human RSK2 (P51812 whole entry): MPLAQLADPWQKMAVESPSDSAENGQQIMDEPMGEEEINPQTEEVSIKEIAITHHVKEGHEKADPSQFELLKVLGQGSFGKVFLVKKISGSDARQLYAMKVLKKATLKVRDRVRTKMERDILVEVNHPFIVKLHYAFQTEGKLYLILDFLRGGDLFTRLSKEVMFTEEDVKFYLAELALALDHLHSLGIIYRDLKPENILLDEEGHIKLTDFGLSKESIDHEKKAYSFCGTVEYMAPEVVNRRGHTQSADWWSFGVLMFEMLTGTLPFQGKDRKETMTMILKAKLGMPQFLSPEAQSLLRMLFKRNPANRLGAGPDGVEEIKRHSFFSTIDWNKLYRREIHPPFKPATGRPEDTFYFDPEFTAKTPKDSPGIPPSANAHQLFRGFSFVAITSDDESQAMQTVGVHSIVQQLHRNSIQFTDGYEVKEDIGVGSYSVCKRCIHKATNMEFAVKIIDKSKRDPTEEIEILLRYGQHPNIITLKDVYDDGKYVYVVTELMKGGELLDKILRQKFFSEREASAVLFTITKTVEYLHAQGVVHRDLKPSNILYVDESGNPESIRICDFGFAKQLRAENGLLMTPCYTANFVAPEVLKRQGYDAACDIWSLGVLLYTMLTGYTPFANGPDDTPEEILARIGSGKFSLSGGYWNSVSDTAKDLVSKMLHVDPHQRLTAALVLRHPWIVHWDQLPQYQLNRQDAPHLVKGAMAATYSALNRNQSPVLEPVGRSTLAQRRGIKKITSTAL

| SMILES | IC50 [nM] |
| --- | --- |
| C[C@H]1CNC(=O)c2cc3ccc(C(=O)Nc4nc5ccccc5n4CCCN(C)C)cc3n21 [Example 131, (4S)-N-{1-[3-(dimethylamino)propyl]-1H-benzimidazol-2-yl}-4-methyl-1-oxo-1,2,3,4-tetrahydropyrazino[1,2-a]indole-7-carboxamide] | 15 |
| C[C@H]1CNC(=O)c2cc3ccc(C(=O)Nc4cnn(Cc5ccccc5)c4)cc3n21 [Example 133, (4S)-N-(1-benzyl-1H-pyrazol-4-yl)-4-methyl-1-oxo-1,2,3,4-tetrahydropyrazino[1,2-a]indole-7-carboxamide] | 17.5 |
| CC1(C)CNC(=O)c2cc3ccc(C(=O)Nc4cnn(Cc5ccccc5)c4)cc3n21 [Example 134, N-(1-benzyl-1H-pyrazol-4-yl)-4,4-dimethyl-1-oxo-1,2,3,4-tetrahydropyrazino[1,2-a]indole-7-carboxamide] | 1.8 |
| CC1CNC(=O)c2cc3ccc(C(=O)Nc4cnn(Cc5ccccc5)c4)cc3n2C1 (stereo not drawn) [Example 135, N-(1-benzyl-1H-pyrazol-4-yl)-4-methyl-1-oxo-2,3,4,5-tetrahydro-1H-[1,4]diazepino[1,2-a]indole-8-carboxamide] | 7.6 |
| O=C(Nc1cnn(Cc2ccccc2)c1)c1ccc2cc3n(c2c1)CC1(CCC1)CNC3=O [Example 138, N-(1-benzyl-1H-pyrazol-4-yl)-1′-oxo-2′,3′-dihydro-1′H-spiro[cyclobutane-1,4′-[1,4]diazepino[1,2-a]indole]-8′-carboxamide] | 26.5 |
| C[C@@H]1CCNC(=O)c2cc3ccc(C(=O)Nc4cnn(Cc5ccccc5)c4)cc3n21 [Example 143, (5R)-N-(1-benzyl-1H-pyrazol-4-yl)-5-methyl-1-oxo-2,3,4,5-tetrahydro-1H-[1,4]diazepino[1,2-a]indole-8-carboxamide] | 0.71 |
| C[C@H]1CCNC(=O)c2cc3ccc(C(=O)Nc4cnn(Cc5ccccc5)c4)cc3n21 [Example 144, (5S)-N-(1-benzyl-1H-pyrazol-4-yl)-5-methyl-1-oxo-2,3,4,5-tetrahydro-1H-[1,4]diazepino[1,2-a]indole-8-carboxamide] | 80 |
| CC(C)c1cccc(NC(=O)c2ccc3cc4n(c3c2)CCCNC4=O)c1 [Example 145, 1-oxo-N-[3-(propan-2-yl)phenyl]-2,3,4,5-tetrahydro-1H-[1,4]diazepino[1,2-a]indole-8-carboxamide] | 140 |
| CC(C)c1ccc(NC(=O)c2ccc3cc4n(c3c2)CCCNC4=O)cc1 [Example 146, 1-oxo-N-[4-(propan-2-yl)phenyl]-2,3,4,5-tetrahydro-1H-[1,4]diazepino[1,2-a]indole-8-carboxamide] | 89 |
| COc1ccccc1NC(=O)c1ccc2cc3n(c2c1)CCCNC3=O [Example 147, N-(2-methoxyphenyl)-1-oxo-2,3,4,5-tetrahydro-1H-[1,4]diazepino[1,2-a]indole-8-carboxamide] | 400 |
| COc1cccc(NC(=O)c2ccc3cc4n(c3c2)CCCNC4=O)c1 [Example 148, N-(3-methoxyphenyl)-1-oxo-2,3,4,5-tetrahydro-1H-[1,4]diazepino[1,2-a]indole-8-carboxamide] | 190 |
| COc1ccc(NC(=O)c2ccc3cc4n(c3c2)CCCNC4=O)cc1 [Example 149, N-(4-methoxyphenyl)-1-oxo-2,3,4,5-tetrahydro-1H-[1,4]diazepino[1,2-a]indole-8-carboxamide] | 110 |
| O=C(Nc1cccnc1)c1ccc2cc3n(c2c1)CC(F)(F)CNC3=O [Example 152, 4,4-difluoro-1-oxo-N-(pyridin-3-yl)-2,3,4,5-tetrahydro-1H-[1,4]diazepino[1,2-a]indole-8-carboxamide] | 1700 |
| O=C(Nc1cccnc1)c1ccc2cc3n(c2c1)CC1(CCC1)CNC3=O [Example 153, 1′-oxo-N-(pyridin-3-yl)-2′,3′-dihydro-1′H-spiro[cyclobutane-1,4′-[1,4]diazepino[1,2-a]indole]-8′-carboxamide] | 3300 |
| O=C(Nc1ccccn1)c1ccc2cc3n(c2c1)CCCNC3=O [Example 154, 1-oxo-N-(pyridin-2-yl)-2,3,4,5-tetrahydro-1H-[1,4]diazepino[1,2-a]indole-8-carboxamide] | 220 |
| O=C(Nc1ccncc1)c1ccc2cc3n(c2c1)CCCNC3=O [Example 156, 1-oxo-N-(pyridin-4-yl)-2,3,4,5-tetrahydro-1H-[1,4]diazepino[1,2-a]indole-8-carboxamide] | 39 |
| Cn1cc(NC(=O)c2ccc3cc4n(c3c2)CC(C)(C)CNC4=O)cn1 [Example 163, 4,4-dimethyl-N-(1-methyl-1H-pyrazol-4-yl)-1-oxo-2,3,4,5-tetrahydro-1H-[1,4]diazepino[1,2-a]indole-8-carboxamide] | 335 |
| CCn1c(NC(=O)c2ccc3cc4n(c3c2)C(C)CCNC4=O)nc2ccccc21 (stereo not drawn) [Example 166, N-(1-ethyl-1H-benzimidazol-2-yl)-5-methyl-1-oxo-2,3,4,5-tetrahydro-1H-[1,4]diazepino[1,2-a]indole-8-carboxamide] | 0.6 |

Other lines, results leading:

| IC50 [nM] | SMILES |
| --- | --- |
| 495 | Cc1cc(NC(=O)c2ccc3cc4n(c3c2)[C@@H](C)CNC4=O)no1 [Example 132, (4S)-4-methyl-N-(5-methyl-1,2-oxazol-3-yl)-1-oxo-1,2,3,4-tetrahydropyrazino[1,2-a]indole-7-carboxamide] |
| 43.5 | C[C@@H]1CNC(=O)c2cc3ccc(C(=O)Nc4cnn(Cc5ccccc5)c4)cc3n2[C@H]1C [Example 137, (4R,5S)-N-(1-benzyl-1H-pyrazol-4-yl)-trans-4,5-dimethyl-1-oxo-2,3,4,5-tetrahydro-1H-[1,4]diazepino[1,2-a]indole-8-carboxamide] |
| 0.18 | C[C@@H]1NC(=O)c2cc3ccc(C(=O)Nc4nc5ccccc5n4CCCN(C)C)cc3n2[C@@H]1C [Example 139, (3S,4R)-N-{1-[3-(dimethylamino)propyl]-1H-benzimidazol-2-yl}-3,4-dimethyl-1-oxo-1,2,3,4-tetrahydropyrazino[1,2-a]indole-7-carboxamide] |
| 0.42 | C[C@@H]1NC(=O)c2cc3ccc(C(=O)Nc4cnn(Cc5ccccc5)c4)cc3n2[C@@H]1C [Example 140, (3S,4R)-N-(1-benzyl-1H-pyrazol-4-yl)-3,4-dimethyl-1-oxo-1,2,3,4-tetrahydropyrazino[1,2-a]indole-7-carboxamide] |
| 13.7 | C[C@H]1NC(=O)c2cc3ccc(C(=O)Nc4nc5ccccc5n4CCCN(C)C)cc3n2[C@H]1C [Example 141, (3R,4S)-N-{1-[3-(dimethylamino)propyl]-1H-benzimidazol-2-yl}-3,4-dimethyl-1-oxo-1,2,3,4-tetrahydropyrazino[1,2-a]indole-7-carboxamide] |
| 65.5 | C[C@H]1NC(=O)c2cc3ccc(C(=O)Nc4cnn(Cc5ccccc5)c4)cc3n2[C@H]1C [Example 142, (3R,4S)-N-(1-benzyl-1H-pyrazol-4-yl)-3,4-dimethyl-1-oxo-1,2,3,4-tetrahydropyrazino[1,2-a]indole-7-carboxamide] |
| 2300 | C[C@H]1CNC(=O)c2cc3ccc(C(=O)Nc4cccnc4)cc3n21 [Example 155, (4S)-4-methyl-1-oxo-N-(pyridin-3-yl)-1,2,3,4-tetrahydropyrazino[1,2-a]indole-7-carboxamide] |
| 1800 | Cc1cc(NC(=O)c2ccc3cc4n(c3c2)CC(C)(C)CNC4=O)no1 [Example 157, 4,4-dimethyl-N-(5-methyl-1,2-oxazol-3-yl)-1-oxo-2,3,4,5-tetrahydro-1H-[1,4]diazepino[1,2-a]indole-8-carboxamide] |
| 12 | Cc1cc(NC(=O)c2ccc3cc4n(c3c2)C(C)CCNC4=O)no1 (stereo not drawn) [Example 159, 5-methyl-N-(5-methyl-1,2-oxazol-3-yl)-1-oxo-2,3,4,5-tetrahydro-1H-[1,4]diazepino[1,2-a]indole-8-carboxamide] |
| 32 | CC1CCNC(=O)c2cc3ccc(C(=O)Nc4cc(C(C)(C)C)on4)cc3n21 (stereo not drawn) [Example 160, N-(5-tert-butyl-1,2-oxazol-3-yl)-5-methyl-1-oxo-2,3,4,5-tetrahydro-1H-[1,4]diazepino[1,2-a]indole-8-carboxamide] |
| 19 | CC(C)n1ncc2cc(NC(=O)c3ccc4cc5n(c4c3)C(C)CCNC5=O)cnc21 (stereo not drawn) [Example 162, 5-methyl-1-oxo-N-[1-(propan-2-yl)-1H-pyrazolo[3,4-b]pyridin-5-yl]-2,3,4,5-tetrahydro-1H-[1,4]diazepino[1,2-a]indole-8-carboxamide] |
| 10 | CC1CCNC(=O)c2cc3ccc(C(=O)Nc4cnn(C)c4)cc3n21 (stereo not drawn) [Example 164, 5-methyl-N-(1-methyl-1H-pyrazol-4-yl)-1-oxo-2,3,4,5-tetrahydro-1H-[1,4]diazepino[1,2-a]indole-8-carboxamide] |
| 1.8 | CC(C)n1c(NC(=O)c2ccc3cc4n(c3c2)C(C)CCNC4=O)nc2ccccc21 (stereo not drawn) [Example 165, 5-methyl-1-oxo-N-[1-(propan-2-yl)-1H-benzimidazol-2-yl]-2,3,4,5-tetrahydro-1H-[1,4]diazepino[1,2-a]indole-8-carboxamide] |
| 670 | Cc1cc(NC(=O)c2ccc3cc4n(c3c2)CC(F)(F)CNC4=O)no1 [Example 167, 4,4-difluoro-N-(5-methyl-1,2-oxazol-3-yl)-1-oxo-2,3,4,5-tetrahydro-1H-[1,4]diazepino[1,2-a]indole-8-carboxamide] |
| 1300 | Cc1cc(NC(=O)c2ccc3cc4n(c3c2)CC2(CCC2)CNC4=O)no1 [Example 170, N-(5-methyl-1,2-oxazol-3-yl)-1′-oxo-2′,3′-dihydro-1′H-spiro[cyclobutane-1,4′-[1,4]diazepino[1,2-a]indole]-8′-carboxamide] |
| 4 | Cc1cc(NC(=O)c2ccc3cc4n(c3c2)[C@H](C)[C@H](C)NC4=O)no1 [Example 171, (3S,4R)-3,4-dimethyl-N-(5-methyl-1,2-oxazol-3-yl)-1-oxo-1,2,3,4-tetrahydropyrazino[1,2-a]indole-7-carboxamide] |
| 1100 | Cc1cc(NC(=O)c2ccc3cc4n(c3c2)[C@@H](C)[C@@H](C)NC4=O)no1 [Example 172, (3R,4S)-3,4-dimethyl-N-(5-methyl-1,2-oxazol-3-yl)-1-oxo-1,2,3,4-tetrahydropyrazino[1,2-a]indole-7-carboxamide] |
| 1200 | Cc1cc(NC(=O)c2ccc3cc4n(c3c2)[C@@H](C)CCNC4=O)no1 [Example 173, (5S)-5-methyl-N-(5-methyl-1,2-oxazol-3-yl)-1-oxo-2,3,4,5-tetrahydro-1H-[1,4]diazepino[1,2-a]indole-8-carboxamide] |

Reference: patent US9150577B2, “Heterocyclic compounds containing an indole core” (Boehringer Ingelheim International GmbH, priority 2009, dated 2015)
